Like-named read-outs stand apart in the source and are kept apart here.
Columns and labels:
KRAS G12D = KRAS G12D (Homo sapiens, UniProt P01116, G12D); test: GDP-GTP exchange assay (bodipy-GDP/GppNHp, SOS1), KRAS G12D; type: biochemical
KRAS G12V = KRAS G12V (Homo sapiens, UniProt P01116, G12V); test: GDP-GTP exchange assay (bodipy-GDP/GppNHp, SOS1), KRAS G12V; type: biochemical
[1] = bodipy-loaded KRAS G12D 2.5 nM, 4 h pre-incubation, value for the most potent isomer quoted for certain compounds, read-out: G12D (KRAS G12D exchange assay IC50)
[2] = KRAS G12V mutant, value for the most potent isomer quoted for certain compounds, read-out: G12V (KRAS G12V exchange assay IC50)

KRAS G12V, sequence (P01116 1-188 isoform P01116-2 G12V): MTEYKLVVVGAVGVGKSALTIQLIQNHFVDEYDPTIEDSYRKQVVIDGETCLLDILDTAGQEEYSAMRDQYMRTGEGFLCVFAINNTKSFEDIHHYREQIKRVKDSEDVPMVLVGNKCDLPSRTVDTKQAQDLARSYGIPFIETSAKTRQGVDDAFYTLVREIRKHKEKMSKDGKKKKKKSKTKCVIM
KRAS G12D, sequence (P01116 1-188 isoform P01116-2 G12D): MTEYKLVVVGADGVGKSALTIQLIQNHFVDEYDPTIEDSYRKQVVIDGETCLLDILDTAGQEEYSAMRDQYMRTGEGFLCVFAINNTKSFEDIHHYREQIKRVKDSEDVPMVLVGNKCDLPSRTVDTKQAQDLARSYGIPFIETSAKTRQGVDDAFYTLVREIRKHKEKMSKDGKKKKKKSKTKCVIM

IC50 (KRAS G12D; [1]) [nM]	IC50 (KRAS G12V; [2]) [nM]	IC50 (KRAS G12D; Table H, column G12D, for compounds isolated as several atropisomers/diastereoisomers the value for the most potent isomer is quoted, read-out: KRAS G12D exchange assay IC50) [nM]	IC50 (KRAS G12V; Table H, column G12V, for compounds isolated as several atropisomers/diastereoisomers the value for the most potent isomer is quoted, read-out: KRAS G12V exchange assay IC50) [nM]	Compound
≤ 100	≤ 100			COC(=O)c1cnn([C@H]2C[C@H](c3cc4c(C)nc5c(F)c(-c6cccc(Cl)c6Cl)c(CCC#N)cc5c4n3[C@H]3[C@H]4CN[C@@H]3C4)N(C(=O)C3CC3)C2)c1 [Example 353]
≤ 100	≤ 100			Cc1nc2c(F)c(-c3cccc(Cl)c3Cl)c(CCC#N)cc2c2c1cc([C@H]1C[C@H](n3cnnn3)CN1C(=O)C1CC1)n2[C@H]1[C@H]2CN[C@@H]1C2 [Example 395]
≤ 100	≤ 100			Cc1nc2c(F)c(-c3cccc(Cl)c3Cl)c(CCC#N)cc2c2c1cc([C@H]1C[C@H](n3cnc(-c4ccccc4)n3)CN1C(=O)C1CC1)n2[C@H]1[C@H]2CN[C@@H]1C2 [Example 349]
≤ 100	≤ 100			Cc1ncccc1CO[C@H]1C[C@H](c2cc3c(C)nc4c(F)c(-c5cccc(Cl)c5Cl)c(CCC#N)cc4c3n2[C@H]2[C@H]3CN[C@@H]2C3)N(C(=O)C2CC2)C1 [Example 139]
≤ 100	≤ 100			COC(=O)N1C[C@@H](Oc2ccccn2)C[C@@H]1c1cc2c(-c3ccc(CN(C)C)c(F)c3F)nc3c(F)c(-c4cccc(Cl)c4Cl)c(CCC#N)cc3c2n1[C@H]1[C@H]2CN[C@@H]1C2 [Example 148]
≤ 100	≤ 100			Cc1nc2c(F)c(-c3cccc(Cl)c3Cl)c(CCC#N)cc2c2c1cc([C@H]1C[C@H](Oc3cccnc3N)CN1C(=O)C1CC1)n2[C@H]1[C@H]2CN[C@@H]1C2 [Example 288]
≤ 100	≤ 100			Cc1nnn([C@H]2C[C@H](c3cc4c(C)nc5c(F)c(-c6cccc(Cl)c6Cl)c(CCC#N)cc5c4n3[C@H]3[C@H]4CN[C@@H]3C4)N(C(=O)C3CC3)C2)n1 [Example 398]
≤ 100	≤ 100			Cc1nc2c(F)c(-c3cccc(Cl)c3Cl)c(CCC#N)cc2c2c1cc([C@H]1C[C@H](Oc3cccnn3)CN1C(=O)C1CC1)n2[C@H]1[C@H]2CN[C@@H]1C2 [Example 138]
		≤ 100	≤ 100	Cc1nc2c(F)c(-c3cccc(Cl)c3Cl)c(CCC#N)cc2c2c1cc([C@H]1C[C@H](OCC3CCOCC3)CN1C(=O)C1CC1)n2[C@H]1[C@H]2CN[C@@H]1C2 [Example 29]
≤ 100	≤ 100			Cc1nc2c(F)c(-c3cccc(Cl)c3Cl)c(CCC#N)cc2c2c1cc([C@H]1C[C@H](Oc3cc(C(F)(F)F)[nH]n3)CN1C(=O)C1CC1)n2[C@H]1[C@H]2CN[C@@H]1C2 [Example 409]
≤ 100	≤ 100			Cc1nc2c(F)c(-c3cccc(Cl)c3Cl)c(CCC#N)cc2c2c1cc([C@H]1C[C@H](OCc3cn(C)nn3)CN1C(=O)C1CC1)n2[C@H]1[C@H]2CN[C@@H]1C2 [Example 100]
≤ 100	≤ 100			COc1ccnc(O[C@H]2C[C@H](c3cc4c(C)nc5c(F)c(-c6cccc(Cl)c6Cl)c(CCC#N)cc5c4n3[C@H]3[C@H]4CN[C@@H]3C4)N(C(=O)C3CC3)C2)n1 [Example 247]
≤ 100	≤ 100			Cc1nc2c(F)c(-c3cccc(Cl)c3Cl)c(CCC#N)cc2c2c1cc([C@H]1C[C@H](Oc3ccncc3)CN1C(=O)C1CC1)n2[C@H]1[C@H]2CN[C@@H]1C2 [Example 193]
≤ 100	≤ 100			Cc1nc2c(F)c(-c3cccc(Cl)c3Cl)c(CCC#N)cc2c2c1cc([C@H]1C[C@H](Oc3cc(N4CC(C(F)F)C4)ccn3)CN1C(=O)C1CC1)n2[C@H]1[C@H]2CN[C@@H]1C2 [Example 371]
100 to 1000	≤ 100			N#CCCc1cc2c(nc(-c3ccc(N4CCCC4=O)nc3)c3cc([C@H]4C[C@H](OCc5c(F)cccc5F)CN4C(=O)C4CC4)n([C@H]4[C@H]5CN[C@@H]4C5)c32)c(F)c1-c1cccc(Cl)c1Cl [Example 207]
≤ 100	≤ 100			Cc1nc2c(F)c(-c3cccc(Cl)c3Cl)c(CCC#N)cc2c2c1cc([C@H]1C[C@H](Oc3ccccc3)CN1C(=O)C1CC1)n2[C@H]1[C@H]2CN[C@@H]1C2 [Example 103]
≤ 100	≤ 100			Cc1nc2c(F)c(-c3cccc(Cl)c3Cl)c(CCC#N)cc2c2c1cc([C@H]1C[C@H](OCc3ccns3)CN1C(=O)C1CC1)n2[C@H]1[C@H]2CN[C@@H]1C2 [Example 257]
≤ 100	≤ 100			Cc1nc2c(F)c(-c3cccc(Cl)c3Cl)c(CCC#N)cc2c2c1cc([C@H]1C[C@H](Oc3cccnc3N3CCOCC3)CN1C(=O)C1CC1)n2[C@H]1[C@H]2CN[C@@H]1C2 [Example 284]
≤ 100	≤ 100			COc1ncc(C(F)(F)F)cc1O[C@H]1C[C@H](c2cc3c(C)nc4c(F)c(-c5cccc(Cl)c5Cl)c(CCC#N)cc4c3n2[C@H]2[C@H]3CN[C@@H]2C3)N(C(=O)C2CC2)C1 [Example 451]
≤ 100	≤ 100			Cc1ccc(O[C@H]2C[C@H](c3cc4c(C)nc5c(F)c(-c6cccc(Cl)c6Cl)c(CCC#N)cc5c4n3[C@H]3[C@H]4CN[C@@H]3C4)N(C(=O)C3CC3)C2)cc1 [Example 118]

IC50 (KRAS G12D; [1]) [nM]	IC50 (KRAS G12V; [2]) [nM]	IC50 (KRAS G12D; Table H, column G12D, for compounds isolated as several atropisomers/diastereoisomers the value for the most potent isomer is quoted, read-out: KRAS G12D exchange assay IC50) [nM]	IC50 (KRAS G12V; Table H, column G12V, for compounds isolated as several atropisomers/diastereoisomers the value for the most potent isomer is quoted, read-out: KRAS G12V exchange assay IC50) [nM]	Compound
≤ 100	≤ 100			COc1cnn([C@H]2C[C@H](c3cc4c(C)nc5c(F)c(-c6cccc(Cl)c6Cl)c(CCC#N)cc5c4n3[C@H]3[C@H]4CN[C@@H]3C4)N(C(=O)C3CC3)C2)c1 [Example 352]
≤ 100	≤ 100			Cc1nc2c(F)c(-c3cccc(Cl)c3Cl)c(CCC#N)cc2c2c1cc([C@H]1C[C@H](OCC3CCOCC3)CN1C(=O)C1CC1)n2[C@H]1[C@H]2CN[C@@H]1C2 [Example 413]
≤ 100	≤ 100			Cc1nc2c(F)c(-c3cccc(Cl)c3Cl)c(CCC#N)cc2c2c1cc([C@H]1C[C@H](OCc3nsc4cc(F)ccc34)CN1C(=O)C1CC1)n2[C@H]1[C@H]2CN[C@@H]1C2 [Example 256]
≤ 100	≤ 100			Cc1nc2c(F)c(-c3cccc(Cl)c3Cl)c(CCC#N)cc2c2c1cc([C@H]1C[C@H](OC3CCOC3)CN1C(=O)C1CC1)n2[C@H]1[C@H]2CN[C@@H]1C2 (some centres unmarked) [Example 364]
≤ 100	≤ 100			Cc1nc2c(F)c(-c3cccc(Cl)c3Cl)c(CCC#N)cc2c2c1cc([C@H]1C[C@H](c3ccccc3)CN1C(=O)C1CC1)n2[C@H]1[C@H]2CN[C@@H]1C2 [Example 109]
≤ 100	≤ 100			Cc1nc2c(F)c(-c3cccc(Cl)c3Cl)c(CCC#N)cc2c2c1cc([C@H]1C[C@H](Oc3cccnc3)CN1C(=O)C1CC1)n2[C@H]1[C@H]2CN[C@@H]1C2 [Example 114]
≤ 100	≤ 100			Cc1nc2c(F)c(-c3cccc(Cl)c3Cl)c(CCC#N)cc2c2c1cc([C@H]1C[C@H](n3cc(C#N)cn3)CN1C(=O)C1CC1)n2[C@H]1[C@H]2CN[C@@H]1C2 [Example 281]
≤ 100	≤ 100			Cc1nc2c(F)c(-c3cccc(Cl)c3Cl)c(CCC#N)cc2c2c1cc([C@H]1C[C@H](Oc3ccnc(C4CCC4)c3)CN1C(=O)C1CC1)n2[C@H]1[C@H]2CN[C@@H]1C2 [Example 421]
≤ 100	≤ 100			Cc1nc(CO[C@H]2C[C@H](c3cc4c(C)nc5c(F)c(-c6cccc(Cl)c6Cl)c(CCC#N)cc5c4n3[C@H]3[C@H]4CN[C@@H]3C4)N(C(=O)C3(C)CC3)C2)cs1 [Example 128]
100 to 1000	≤ 100			Cc1nc2c(F)c(-c3cccc(Cl)c3Cl)c(CCC#N)cc2c2c1cc([C@H]1C[C@H](OCc3c(F)cccc3F)CN1C(=O)N(C)c1ccccc1)n2[C@H]1[C@H]2CN[C@@H]1C2 [Example 197]
≤ 100	≤ 100			Cc1nc2c(F)c(-c3cccc(Cl)c3Cl)c(CCC#N)cc2c2c1cc([C@H]1C[C@H](Oc3ccnc(C#N)c3)CN1C(=O)C1CC1)n2[C@H]1[C@H]2CN[C@@H]1C2 [Example 198]
≤ 100	≤ 100			Cc1cccc(C)c1CO[C@H]1C[C@H](c2cc3c(C)nc4c(F)c(-c5cccc(Cl)c5Cl)c(CCC#N)cc4c3n2[C@H]2[C@H]3CN[C@@H]2C3)N(C(=O)C2CC2)C1 [Example 113]
≤ 100	≤ 100			COc1cc(O[C@H]2C[C@H](c3cc4c(C)nc5c(F)c(-c6cccc(Cl)c6Cl)c(CCC#N)cc5c4n3[C@H]3[C@H]4CN[C@@H]3C4)N(C(=O)C3CC3)C2)ccc1C#N [Example 287]
≤ 100	≤ 100			Cc1csnc1C(C)O[C@H]1C[C@H](c2cc3c(C)nc4c(F)c(-c5cccc(Cl)c5Cl)c(CCC#N)cc4c3n2[C@H]2[C@H]3CN[C@@H]2C3)N(C(=O)C2CC2)[C@@H]1C (some centres unmarked) [Example 254]
100 to 1000	≤ 100			Cc1nc2c(F)c(-c3cccc(Cl)c3Cl)c(CCC#N)cc2c2c1cc([C@H]1C[C@H](Oc3cccc(C#N)c3)[C@@H](C)N1C(=O)C1CC1)n2[C@H]1[C@H]2CN[C@@H]1C2 [Example 213]
≤ 100	≤ 100			Cc1nc2c(F)c(-c3cccc(Cl)c3Cl)c(CCC#N)cc2c2c1cc([C@H]1C[C@H](n3cc(CCc4ccccc4)nn3)CN1C(=O)C1CC1)n2[C@H]1[C@H]2CN[C@@H]1C2 [Example 389]
≤ 100	≤ 100			Cc1nc2c(F)c(-c3cccc(Cl)c3Cl)c(CCC#N)cc2c2c1cc([C@H]1C[C@H](Oc3nn(C)c4ccccc34)CN1C(=O)C1CC1)n2[C@H]1[C@H]2CN[C@@H]1C2 [Example 192]
≤ 100	≤ 100			Cc1nc2c(F)c(-c3cccc(Cl)c3Cl)c(CCC#N)cc2c2c1cc([C@H]1C[C@H](OC3CC3)CN1C(=O)C1CC1)n2[C@H]1[C@H]2CN[C@@H]1C2 [Example 230]
≤ 100	≤ 100			COC(=O)c1ccc(-c2nnn([C@H]3C[C@H](c4cc5c(C)nc6c(F)c(-c7cccc(Cl)c7Cl)c(CCC#N)cc6c5n4[C@H]4[C@H]5CN[C@@H]4C5)N(C(=O)C4CC4)C3)n2)cc1 [Example 435]
≤ 100	≤ 100			Cc1nc2c(F)c(-c3cccc(Cl)c3Cl)c(CCC#N)cc2c2c1cc([C@H]1C[C@H](OCc3cncs3)CN1C(=O)C1CC1)n2[C@H]1[C@H]2CN[C@@H]1C2 [Example 97]

— patent US20240390340A1 (INCYTE CORPORATION, priority 2023, published 2024)
